Data on 25 compounds can be found in patent publication US11684616B2, “Azalactam compounds as HPK1 inhibitors” (PFIZER INC., priority 2020, dated 2023).

What is called IC50 is the point on the concentration scale where inhibition reaches its midpoint. A word on the Ki: it is a measure of affinity in units of concentration, obtained from inhibition or displacement.

The subject of test [1] is Phospho-SLP-76 (Ser376) in Jurkat cells. Description: Phospho-SLP-76 (Ser376) HTRF assay in anti-CD3 stimulated Jurkat cells. The class given is cell-based. The settings on record: Homo sapiens, Jurkat, 30 min pre-treatment, anti-CD3 stimulation 15 min, read-out: pSLP76 IC50. As to the method: Cell Based Assays Phospho-SLP-76 (Ser376) Homogeneous Time Resolved Fluorescence (HTRF) Assay
Jurkat cells were seeded at 90,000 cells/well in 90 uL of RPMI1640 growth medium containing 10% FBS and incubated at 37° C. with 5% CO2 overnight. The following day, compounds were serially diluted from a 10 mM top dose for an 11-point 3-fold dilution curve in DMSO. Compounds were intermediately diluted 1:100 into growth media prior to diluting 1:10 on cells for final concentration 10 μM to 0.1 nM in 0.1% DMSO. After 30 min pre-treatment with compounds, the cells were stimulated using 200 μg/mL of F(ab)2 complexed anti-CD3 (clone UCTH1) for 15 min at 37° C. with 5% CO2. Stimulation was stopped with ice cold PBS and cells were harvested by centrifugation before lysis in Cisbio lysis buffer (Cisbio, Bedford, Mass.). Lysates were transferred to white, low-volume plates containing anti-phospho-SLP-76-Cryptate plus anti-phospho-SLP-76-d2 HTRF antibodies and incubated overnight at room temperature protected from light according to the manufacturer's protocol (Cisbio, Bedford, Mass.). HTRF was measured on a Perkin Elmer Envision and IC50 values were calculated by concentration-response curve fitting utilizing four-parameter nonlinear regression analyses.

Test [2] concerns the target human full-length autophosphorylated recombinant HPK1 (Homo sapiens (Human), UniProt Q92918). Description: HPK1 biochemical enzyme assay (chelation-enhanced fluorescence, CHEF). The settings on record: 0.5 nM HPK1, 45 μM ATP, Morrison fit. An outline of the steps: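 Autophosphorylated full-length human HPK1 from Sf21 cells, His-tag removed by TEV, residual N-terminal Gly-Ser. Activity measured with a C-Sox fluorescent peptide substrate (CHEF); initial velocities followed at λex 360/λem 500 nm, 30 °C for 15 min.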

Bounds are passed on as bounds.

human full-length autophosphorylated recombinant HPK1, sequence (Q92918 other isoform, or with tags, fused parts or gaps): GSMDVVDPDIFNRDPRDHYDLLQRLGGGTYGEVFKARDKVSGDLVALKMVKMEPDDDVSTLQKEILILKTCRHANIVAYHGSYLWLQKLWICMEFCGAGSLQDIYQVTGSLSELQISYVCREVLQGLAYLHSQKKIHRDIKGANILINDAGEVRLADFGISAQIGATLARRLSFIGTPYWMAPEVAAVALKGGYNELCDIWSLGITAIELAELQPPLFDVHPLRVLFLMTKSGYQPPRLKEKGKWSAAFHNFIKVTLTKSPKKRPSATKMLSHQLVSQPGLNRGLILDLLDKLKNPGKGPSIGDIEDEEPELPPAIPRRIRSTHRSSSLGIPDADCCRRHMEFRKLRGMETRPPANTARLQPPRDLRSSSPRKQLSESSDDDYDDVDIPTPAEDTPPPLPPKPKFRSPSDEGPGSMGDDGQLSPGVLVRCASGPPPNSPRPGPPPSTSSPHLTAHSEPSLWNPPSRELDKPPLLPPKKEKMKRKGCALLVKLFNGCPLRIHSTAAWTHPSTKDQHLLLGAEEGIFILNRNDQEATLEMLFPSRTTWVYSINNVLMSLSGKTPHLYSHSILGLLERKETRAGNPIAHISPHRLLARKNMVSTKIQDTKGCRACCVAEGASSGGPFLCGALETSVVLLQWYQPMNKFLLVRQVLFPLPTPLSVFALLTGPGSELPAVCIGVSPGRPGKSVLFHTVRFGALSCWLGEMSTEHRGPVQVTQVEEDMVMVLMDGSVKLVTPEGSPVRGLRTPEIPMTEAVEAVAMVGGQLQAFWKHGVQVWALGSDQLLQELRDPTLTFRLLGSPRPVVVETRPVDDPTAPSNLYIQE

As to `CCn1cnnc1-c1cccc(N2Cc3c(cc(C4(C)CC4)nc3[C@@H](C)NC)C2=O)n1` [Example 111, 2-[6-(4-ethyl-4H-1,2,4-triazol-3-yl)pyridin-2-yl]-4-[(1R)-1-(methylamino)ethyl]-6-(1-methylcyclo-propyl)-2,3-dihydro-1H-pyrrolo[3,4-c]pyridin-1-one], in test [1], the concentration for half-maximal inhibition (IC50) was 470 nM. The Ki in test [2] is 3.42 nM.

For `CCCn1cnnc1-c1cccc(N2Cc3c(cc(N(C)C)nc3C(C)(C)N)C2=O)n1` [Example 131, 4-(2-aminopropan-2-yl)-6-(dimethyl-amino)-2-[6-(4-propyl-4H-1,2,4-triazol-3-yl)pyridin-2-yl]-2,3-dihydro-1H-pyrrolo[3,4-c]pyridin-1-one], in test [1], the concentration for half-maximal inhibition (IC50) was 94 nM. Moreover, the Ki in test [2] worked out at 1.02 nM.

For the compound `CC[C@@H](N)c1nc(N(C)C(C)C)cc2c1CN(c1cccc(-c3nnc4n3[C@@H](CF)CC4)n1)C2=O` [Example 34, 4-[(1R)-1-aminopropyl]-2-{6-[(5R)-5-(fluoromethyl)-6,7-dihydro-5H-pyrrolo[2,1-c][1,2,4]triazol-3-yl]pyridin-2-yl}-6-[methyl (propan-2-yl)amino]-2,3-dihydro-1H-pyrrolo[3,4-c]pyridin-1-one], the IC50 in test [1] was found to be 26 nM. The inhibition constant Ki in test [2] was 0.15 nM.

Take `CCCn1cnnc1-c1cccc(N2Cc3c(cc(N4CCC[C@H]4C)nc3[C@@H](C)N)C2=O)n1` (single isomer, unassigned) [Example 101]: in test [1], the IC50 came out at 118 nM. Besides, the Ki in test [2] was found to be 0.17 nM.

As for `CCCn1cnnc1-c1cccc(N2Cc3c(cc(C4(C)CC4)nc3[C@H](C)NC)C2=O)n1` [Example 113, 4-[(1S)-1-(methylamino)ethyl]-6-(1-methylcyclo-propyl)-2-[6-(4-propyl-4H-1,2,4-triazol-3-yl)pyridin-2-yl]-2,3-dihydro-1H-pyrrolo[3,4-c]pyridin-1-one], the IC50 in test [1] was determined as 133 nM. In addition, the inhibition constant Ki in test [2] worked out at 0.67 nM.

As to `CCn1cnnc1-c1cccc(N2Cc3c(cc(N4CCC[C@H]4C)nc3[C@H](C)NC)C2=O)n1` (single isomer, unassigned) [Example 109], the IC50 in test [1] was determined as 61 nM. For the same compound, in test [2], the inhibition constant Ki is 0.31 nM.

Consider `CCCn1c(C)nnc1-c1cccc(N2Cc3c(cc(N4CCC[C@H]4C)nc3[C@H](C)N)C2=O)n1` (single isomer, unassigned) [Example 136], for which, in test [1], the IC50 came out at 90 nM. In addition, the Ki in test [2] was 0.22 nM.

Take `CNCc1nc(N(C)C(C)C)cc2c1CN(c1cccc(-c3nnc4n3[C@@H](C)C[C@H]4C)n1)C2=O` [Example 212, 2-{6-[(5S,7R)-5,7-dimethyl-6,7-dihydro-5H-pyrrolo[2,1-c] [1,2,4]triazol-3-yl]pyridin-2-yl}-4-[(methyl-amino)methyl]-6-[methyl (propan-2-yl)amino]-2,3-dihydro-1H-pyrrolo[3,4-c] pyridin-1-one]: in test [1], the half-maximal inhibitory concentration (IC50) was 159 nM. In test [2], the inhibition constant (Ki) was 0.32 nM.

For the compound `CCn1cnnc1-c1cccc(N2Cc3c(cc(N4CCC[C@H]4C)nc3[C@H](C)N)C2=O)n1` (single isomer, unassigned) [Example 150], in test [1], the IC50 stood at 59 nM. In addition, the inhibition constant (Ki) in test [2] is 0.11 nM.

Turning to `CCCn1cnnc1-c1cccc(N2Cc3c(cc(C4(C)CC4)nc3[C@@H](C)N)C2=O)n1` (single isomer, unassigned) [Example 117, 4-[(1ξ)-1-aminoethyl]-6-(1-methyl-cyclopropyl)-2-[6-(4-propyl-4H-1,2,4-triazol-3-yl)pyridin-2-yl]-2,3-dihydro-1H-pyrrolo[3,4-c]pyridin-1-one], the IC50 in test [1] was determined as 270 nM. In addition, the Ki in test [2] amounted to 1.02 nM.

As for `C[C@@H]1CCc2nnc(-c3cccc(N4Cc5c(cc(N(C)C)nc5C(C)(C)N)C4=O)n3)n21` (single isomer, unassigned) [Example 23, 4-(2-aminopropan-2-yl)-6-(dimethyl-amino)-2-{6-[(5ξ)-5-methyl-6,7-dihydro-5H-pyrrolo[2,1-c][1,2,4]triazol-3-yl]pyridin-2-yl}-2,3-dihydro-1H-pyrrolo[3,4-c]pyridin-1-one], the half-inhibitory concentration (IC50) in test [1] turned out to be 329 nM. Further, the inhibitory constant (Ki) in test [2] is 5 nM.

With `CCN(C)c1cc2c(c(C(C)(C)N)n1)CN(c1cccc(-c3nnc(C)n3CC)n1)C2=O` [Example 123, 4-(2-aminopropan-2-yl)-6-[ethyl(methyl)amino]-2-[6-(4-ethyl-5-methyl-4H-1,2,4-triazol-3-yl)pyridin-2-yl]-2,3-dihydro-1H-pyrrolo[3,4-c]pyridin-1-one], the IC50 in test [1] worked out at 243 nM. In addition, the inhibition constant (Ki) in test [2] is 0.97 nM.

On to `CCn1c(C)nnc1-c1cccc(N2Cc3c(cc(N4CCC[C@H]4C)nc3[C@H](C)N)C2=O)n1` (single isomer, unassigned) [Example 155], for which the IC50 in test [1] stood at 113 nM. For the same compound, the inhibition constant (Ki) in test [2] was determined as 0.24 nM.

As for `CCCn1c(C)nnc1-c1cccc(N2Cc3c(cc(N(C)C(C)C)nc3[C@@H](C)N)C2=O)n1` (single isomer, unassigned) [Example 148, 4-[(1ξ)-1-aminoethyl]-6-[methyl (propan-2-yl)amino]-2-[6-(5-methyl-4-propyl-4H-1,2,4-triazol-3-yl)pyridin-2-yl]-2,3-dihydro-1H-pyrrolo[3,4-c]pyridin-1-one], the IC50 in test [1] was determined as 96 nM. In test [2], the Ki was 0.4 nM.

Take `CC[C@@H]1CCc2nnc(-c3cccc(N4Cc5c(cc(N6CCC[C@H]6C)nc5[C@H](N)CC)C4=O)n3)n21` (single isomer, unassigned) [Example 13]: the IC50 in test [1] was 36 nM. Further, the inhibitory constant (Ki) in test [2] was less than 0.07 nM.

For the compound `CCN(C)c1cc2c(c(C(C)(C)N)n1)CN(c1cccc(-c3nncn3CC)n1)C2=O` [Example 124, 4-(2-aminopropan-2-yl)-6-[ethyl(methyl)amino]-2-[6-(4-ethyl-4H-1,2,4-triazol-3-yl)pyridin-2-yl]-2,3-dihydro-1H-pyrrolo[3,4-c]pyridin-1-one], the IC50 in test [1] came out at 98 nM. For the same compound, the Ki in test [2] stood at 0.37 nM.

As for `CCCn1c(C)nnc1-c1cccc(N2Cc3c(cc(N4CCC[C@H]4C)nc3[C@@H](C)N)C2=O)n1` (single isomer, unassigned) [Example 135], in test [1], the half-maximal inhibitory concentration (IC50) is 143 nM. Further, the inhibition constant (Ki) in test [2] amounted to 0.37 nM.

With `C[C@@H]1CCCN1c1cc2c(c([C@@H](C)N)n1)CN(c1cccc(-c3nnc4n3[C@@H](CO)CC4)n1)C2=O` [Example 30, 4-[(1R)-1-aminoethyl]-2-{6-[(5R)-5-(hydroxy-methyl)-6,7-dihydro-5H-pyrrolo[2,1-c][1,2,4]triazol-3-yl]pyridin-2-yl}-6-[(2R)-2-methylpyrroli-din-1-yl]-2,3-dihydro-1H-pyrrolo[3,4-c]pyridin-1-one], the concentration for half-maximal inhibition (IC50) in test [1] came to 62 nM. In test [2], the Ki was less than 0.05 nM.

In the case of `CCCn1c(C)nnc1-c1cccc(N2Cc3c(cc(N(C)C(C)C)nc3C(C)(C)N)C2=O)n1` [Example 139, 4-(2-amino-propan-2-yl)-6-[methyl (propan-2-yl)amino]-2-[6-(5-methyl-4-propyl-4H-1,2,4-triazol-3-yl)pyridin-2-yl]-2,3-dihydro-1H-pyrrolo[3,4-c]pyridin-1-one], the concentration for half-maximal inhibition (IC50) in test [1] worked out at 104 nM. Further, the inhibitory constant (Ki) in test [2] is 0.27 nM.

As for `CC[C@@H]1CCc2nnc(-c3cccc(N4Cc5c(cc(N6CCC[C@H]6C)nc5CNC)C4=O)n3)n21` [Example 203, 2-{6-[(5R)-5-ethyl-6,7-dihydro-5H-pyrrolo[2,1-c] [1,2,4]triazol-3-yl]pyridin-2-yl}-4-[(methyl-amino)methyl]-6-[(2R)-2-methylpyrroli-din-1-yl]-2,3-dihydro-1H-pyrrolo[3,4-c] pyridin-1-one], in test [1], the IC50 worked out at 182 nM. The inhibition constant Ki in test [2] was 1.04 nM.

Consider `CCCn1cnnc1-c1cccc(N2Cc3c(cc(N4CCC[C@H]4C)nc3[C@H](C)N)C2=O)n1` (single isomer, unassigned) [Example 102], for which the IC50 in test [1] amounted to 107 nM. In addition, the inhibition constant (Ki) in test [2] was 0.11 nM.

For `CC[C@@H](N)c1nc(C2(C)CC2)cc2c1CN(c1cccc(-c3nnc4n3[C@@H](C)CC4)n1)C2=O` (single isomer, unassigned) [Example 37], the half-maximal inhibitory concentration (IC50) in test [1] was determined as 49 nM. Also, in test [2], the inhibition constant Ki is less than 0.05 nM.

With `COC[C@@H](N)c1nc(C2(C)CC2)cc2c1CN(c1cccc(-c3nnc4n3[C@@H](CF)CC4)n1)C2=O` (single isomer, unassigned) [Example 35], the IC50 in test [1] was determined as 181 nM. Besides, the inhibitory constant (Ki) in test [2] stood at 0.3 nM.

Consider `C[C@@H]1CCCN1c1cc2c(c(C(C)(C)N)n1)CN(c1cccc(-c3nnc4n3[C@@H](C)CC4)n1)C2=O` [Example 17, 4-(2-aminopropan-2-yl)-2-{6-[(5S)-5-methyl-6,7-dihydro-5H-pyrrolo[2,1-c][1,2,4]triazol-3-yl]pyridin-2-yl}-6-[(2R)-2-methylpyrroli-din-1-yl]-2,3-dihydro-1H-pyrrolo[3,4-c]pyridin-1-one], for which, in test [1], the IC50 stood at 23 nM. In addition, in test [2], the Ki was less than 0.05 nM.

As to `CCn1cnnc1-c1cccc(N2Cc3c(cc(C4(C)CC4)nc3[C@H](C)NC)C2=O)n1` [Example 112, 2-[6-(4-ethyl-4H-1,2,4-triazol-3-yl)pyridin-2-yl]-4-[(1S)-1-(methylamino)ethyl]-6-(1-methylcyclo-propyl)-2,3-dihydro-1H-pyrrolo[3,4-c]pyridin-1-one], the half-maximal inhibitory concentration (IC50) in test [1] was determined as 421 nM. Further, the Ki in test [2] stood at 0.77 nM.
